Measurements: patent US20180155429A1, “TREATMENT OF PD-L1 POSITIVE LUNG CANCER USING AN ANTI-PD-1 ANTIBODY” (Bristol-Myers Squibb Company, priority 2015, published 2018)

Experiments:
[1] = tested on: advanced non-squamous (non-SQ) NSCLC; assay: Randomized phase III study of nivolumab versus docetaxel, efficacy (OS, PFS, ORR, DOR, also by tumor PD-L1 expression); type: in vivo, human; details: for Best overall response CR / Best overall response PD / Best overall response PR / Best overall response SD / Best overall response Unable to determine: Nivo N = 292, Doc N = 290; for mOS: PD-L1+ patients; for 1-year PFS rate / median OS / 1-year OS rate: all randomized pts; for 1-year OS rate: nivolumab 3 mg/kg IV Q2W, docetaxel 75 mg/m^2 IV Q3W; for Median time to response: all responders (NIVO, n = 56; DOC, n = 36); for Ongoing response: at last tumor assessment before censoring, responders
Procedure: (§1) 582 patients were randomized to receive either nivolumab or docetaxel. 292 were randomized to receive nivolumab, and of these, 287 actually received nivolumab. 290 were randomized to receive docetaxel, and of these, 268 actually received docetaxel. Patients were treated with nivolumab at 3 mg/kg IV Q2W until they experienced a progressive disease or unacceptable toxicity. Patients were treated with docetaxel at 75 mg/m^2 IV Q3W until progressive disease or unacceptable toxicity occurred. The primary end point of the study was overall survival (OS). The secondary endpoints of the study were overall response rate (ORR) (Per RECIST v1.1 criteria as determined by the investigator), progression free survival (PFS) (Per RECIST v1.1 criteria as determined by the investigator), efficacy by tumor PD-L1 expression, and disease-related symptom improvement rate by week 12. An overview of the trial can be seen in FIGS. 1A and 1B.
All patients had either stage IIIB or stage IV non-squamous NSCLC and 1 prior PT-DC treatment. Prior maintenance therapy with pemetrexed, bevacizumab or erlotinib was allowed (and was not considered a separate line of therapy). Prior TKI therapy was allowed for a known ALK translocation or EGFR mutation. The ECOG PS was 0-1. Patients were stratified by prior maintenance therapy and line of therapy (second-vs third-line)
In this example, ALK means anaplastic lymphoma kinase; ECOG PS means Eastern Cooperative Oncology Group performance status; EGFR means epidermal growth factor receptor; IV means intravenous; LCSS means Lung Cancer Symptom Scale; ORR means objective response rate; OS=overall survival; PFS=progression-free survival; PD=progressive disease; and TKI means tyrosine kinase inhibitor.
The PD-L1 expression was measured for the patients. The DAKO PD-L1 Assay Analytical Validation and Clinical Sample Testing is described in Table 3.

[2] = Randomized phase III study of nivolumab versus docetaxel, exposure and safety; type: in vivo, human; details: for Treatment-related deaths: at DBL, treated pts
Procedure: as §1

[3] = cited from earlier work
PD-1 = target: T1, PD-1 (Homo sapiens, UniProt Q15116); details: 15 subjects, 0.3 mg/kg to 10 mg/kg, across all doses, cited from earlier work
T1 construct: Receptor-occupancy data from 15 subjects who received 0.3 mg/kg to 10 mg/kg dosing with nivolumab indicate that PD-1 occupancy appears to be dose-independent; endogenous in cells

[4] = all randomized pts (Nivo N = 292, Doc N = 290), RECIST v1.1, investigator

T1 sequence (Q15116 25-288): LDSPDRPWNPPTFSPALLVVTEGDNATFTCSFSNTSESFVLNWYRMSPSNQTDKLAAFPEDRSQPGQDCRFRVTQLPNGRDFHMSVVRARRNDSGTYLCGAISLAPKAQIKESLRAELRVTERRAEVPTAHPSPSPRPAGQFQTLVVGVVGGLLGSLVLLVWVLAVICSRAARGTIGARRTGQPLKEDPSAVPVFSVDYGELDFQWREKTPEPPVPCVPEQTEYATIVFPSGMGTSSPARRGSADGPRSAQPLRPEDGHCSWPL

Compound | Best overall response CR [1] | Best overall response PD [1] | Best overall response PR [1] | Best overall response SD [1] | Best overall response Unable to determine [1] | mOS ([1]; 1% expression level) | mOS ([1]; 5% expression level) | mOS ([1]; 10% expression level) | Median DOR ([1]; PD-L1 Negative (<1%)) | ORR ([1]; PD-L1 Negative (<1%)) | Median DOR ([1]; PD-L1 Negative (<5%)) | ORR ([1]; PD-L1 Negative (<5%)) | Median DOR ([1]; PD-L1 Negative (<10%)) | ORR ([1]; PD-L1 Negative (<10%)) | Median DOR ([1]; PD-L1 Not quantifiable) | ORR ([1]; PD-L1 Not quantifiable) | Median DOR ([1]; PD-L1 Positive (≥1%)) | ORR ([1]; PD-L1 Positive (≥1%)) | Median DOR ([1]; PD-L1 Positive (≥5%)) | ORR ([1]; PD-L1 Positive (≥5%)) | further results
CC(=O)O[C@@]12CO[C@@H]1C[C@H](O)[C@@]1(C)C(=O)[C@H](O)C3=C(C)[C@@H](OC(=O)[C@H](O)[C@@H](NC(=O)OC(C)(C)C)c4ccccc4)C[C@@](O)([C@@H](OC(=O)c4ccccc4)[C@H]21)C3(C)C [docetaxel, reference compound] | (0.3) % | (29) % | (12) % | (42) % | (16) % | 9.0 months | 8.1 months | 8.0 months | 5.6 mos | 15% | 5.6 mos | 14% | 5.6 mos | 14% | 6.6 mos | 9.1% | 5.6 mos | 12% | 5.6 mos | 13% | Median DOR ([1]; PD-L1 Positive (≥10%)): 5.6 mos; ORR ([1]; PD-L1 Positive (≥10%)): 13%; 1-year PFS rate [1]: 8.1%; median OS [1]: 9.4 months; ORR [1, 4]: 12%; 1-year OS rate [1]: 39%; Median DOR ([1]; all responders): 5.6 mos; Median time to response [1]: 2.6 mos; Ongoing response [1]: (14) %; Treatment-related deaths [2]: 0.4^9; Treatment-related select AE: Hypothyroidism ([2]; human, in vivo): 0%; Treatment-related select AE: Pneumonitis ([2]; human, in vivo): 0.4%
nivolumab | (1.4) % | (44) % | (18) % | (25) % | (11) % | 17.2 months | 18.2 months | 19.4 months | 18.3 mos | 9.3% | 18.3 mos | 10% | 18.3 mos | 11% | 7.3 mos | 13% | 16.0 mos | 31% | 16.0 mos | 36% | Estimated odds ratio (95% CI) for ORR ([1]; Nivo vs Doc, P-value 0.0246): 1.7 (1.1, 2.6); Median DOR ([1]; PD-L1 Positive (≥10%)): 16.0 mos; ORR ([1]; PD-L1 Positive (≥10%)): 37%; 1-year PFS rate [1]: 19%; median OS [1]: 12.2 months; ORR [1, 4]: 19%; 1-year OS rate [1]: 51%; Median DOR ([1]; all responders): 17.2 mos; Median time to response [1]: 2.1 mos; Ongoing response [1]: (52) %; reduction in risk of death ([1]; nivolumab in comparison to docetaxel): 27%; HR (risk of death) ([1]; nivolumab in comparison to docetaxel, P=0.0015): 0.73; tolerated dose ([3]; given intravenously every 2 weeks): up to 10 mg/kg; maximum tolerated dose (MTD) ([3]; nivolumab monotherapy every two weeks, MTD not reached): > 10 mg/kg; Treatment-related deaths [2]: 0^8; safety profile ([2]; in vivo): favorable vs docetaxel; mean plateau PD-1 occupancy (PD-1; range 59% to 81%): 72%; mean PD-1 occupancy rate (PD-1; range 70% to 97%): 85%
